In US11400138B2, “Method for improving skin condition with bioactive compound” (TCI CO., LTD., priority 2020, dated 2022):

Tests used:
Format in all cases: cell-based
Details in all cases: 12.5 μg synthesized peptide per 1 mL cell culture medium, 24 h, 37° C.
FBN1 gene = FBN1 gene expression in human fibroblasts (CCD-966SK), qPCR
Method: (§1) In order to confirm the effect of each of the amino acid sequences on gene expression in cells, human fibroblasts (CCD-966SK) and individual peptides were co-cultured, and then, gene expression in the cells was analyzed. 11 types of synthesized peptides were respectively subjected to cell experiments. In addition, the amino acid sequences of 11 types of synthesized peptides were respectively SEQ ID NO: 1, SEQ ID NO: 2, SEQ ID NO: 3, SEQ ID NO: 4, SEQ ID NO: 5, SEQ ID NO: 6, SEQ ID NO: 7, SEQ ID NO: 8, SEQ ID NO: 9, SEQ ID NO: 10 and SEQ ID NO: 11. Hereafter, the sequence numbers SEQ ID NO: 1 to SEQ ID NO: 11 will be referred to as groups.
(§2) Cell gene expression test refers to that after the human fibroblasts (purchased from Food Industry Research and Development Institute) and samples to be tested (such as peptides or compositions) were co-cultured, then, RNA in the cells was collected for analysis. Referring to Table 3, the gene expression test groups were divided into 13 groups. 11 groups therein were peptide experiment groups (Experiment group A to Experiment group K), 1 group was a composition experiment group (Experiment group L), and 1 group was a control group. In addition, each group was co-cultured with 1×10^5 human fibroblasts in a cell culture plate containing 2 mL of cell culture medium (X-VIVO™ 10). Experiment group A to Experiment group K respectively corresponded to 11 groups of peptide experiment groups of 11 types of synthesized peptides (SEQ ID NO: 1, SEQ ID NO: 2, SEQ ID NO: 3, SEQ ID NO: 4, SEQ ID NO: 5, SEQ ID NO: 6, SEQ ID NO: 7, SEQ ID NO: 8, SEQ ID NO: 9, SEQ ID NO: 10 and SEQ ID NO: 11) prepared according to Example III. Experiment group L was a composition experiment group added with the composition. In addition, the composition was identified in Example II to be tilapia fish skin collagen peptide powder (purchased from LAPI, Italy) including […] of peptides (i.e., SEQ ID NO: 1, SEQ ID NO: 2, SEQ ID NO: 3, SEQ ID NO: 4, SEQ ID NO: 5 and SEQ ID NO: 6). No peptide or composition was added in Control group.
(§3) For each group of peptide experiment groups (corresponding to Experiment group A to Experiment group K), according to a proportion of 12.5 μg of synthesized peptide per 1 mL of cell culture medium, the human fibroblasts were cultured for 24 h at 37° C. For the composition experiment group (corresponding to Experiment group L), according to a proportion of 100 mg of composition per 1 mL of cell culture medium, the human fibroblasts were cultured for 24 h. For Control group, no peptide was added, and the human fibroblasts were cultured for 24 h in a pure cell culture medium. In addition, after culture for 24 h, the peptide-containing cell culture medium or the pure culture medium was removed from each group, and cells in each group were washed by a phosphate buffer solution (PBS) so as to remove the residual culture medium. The washed cells were spun down and were subjected to cell lysis by a cell lysis solution (purchased from Geneaid company, Taiwan). Then, RNA in each group of cells was extracted by an RNA extraction kit (purchased from Geneaid company, Taiwan). Next, the extracted RNA was subjected to inverse transcription to obtain cDNA by a cDNA synthesis reagent (purchased from Geneaid company, Taiwan). In addition, the intracellular gene expression was observed by a polymerase chain reaction (PCR) instrument using different primers (as shown in Table 3). In addition, the primers firstly reacted by a green fluorescent dye of SYBR green dye (Applied Biosystem), and quantification of gene expression was performed by a 2-ΔΔCt method. It should be noted that the gene expression in the drawings corresponding to the experiments was shown in relative fold or percentage, wherein standard deviations were calculated by an STDEV formula of Excel software, and statistically significant differences were analyzed by one-tailed student t-test in the Excel software. […]

LOX gene = LOX gene expression in human fibroblasts (CCD-966SK), qPCR
Method: as §1
as §2, with “No peptide or composition was added in Control group.” left out
(§4) For each group of peptide experiment groups (corresponding to Experiment group A to Experiment group K), according to a proportion of 12.5 μg of synthesized peptide per 1 mL of cell culture medium, the human fibroblasts were cultured for 24 h at 37° C. […] In addition, the primers firstly reacted by a green fluorescent dye of SYBR green dye (Applied Biosystem), and quantification of gene expression was performed by a 2-ΔΔCt method. It should be noted that the gene expression in the drawings corresponding to the experiments was shown in relative fold or percentage, wherein standard deviations were calculated by an STDEV formula of Excel software, and statistically significant differences were analyzed by one-tailed student t-test in the Excel software. […]

TIMP1 gene = TIMP1 gene expression in human fibroblasts (CCD-966SK), qPCR
Method: as §1, §2
as §3, with “The washed cells were spun down and were subjected to cell lysis by a cell lysis solution (purchased from Geneaid company, Taiwan). Then, RNA in each group of cells was extracted by an RNA extraction kit (purchased from Geneaid company, Taiwan). Next, the extracted RNA was subjected to inverse transcription to obtain cDNA by a cDNA synthesis reagent (purchased from Geneaid company, Taiwan). In addition, the intracellular gene expression was observed by a polymerase chain reaction (PCR) instrument using different primers (as shown in Table 3).” left out

MMP2 gene = MMP2 gene expression in human fibroblasts (CCD-966SK), qPCR
Method: as §1, with “groups. […]” for “groups.”
as §4

Substance: DQGIRLL (listed as Oreochromis mossambicus) [SEQ ID NO: 10, synthesized peptide of Plectin b]
- FBN1 gene expression level, folds of Control group (FBN1 gene): about 6 folds

Substance: AVNGLTLAGGRGLNTGAALT (listed as Oreochromis mossambicus) [SEQ ID NO: 5, synthesized peptide of tilapia skin, Collagen, type VI]
- FBN1 gene expression level, folds of Control group (FBN1 gene): about 6 folds
- LOX gene expression level, folds of Control group (LOX gene): about 2.5 folds

Substance: QRGEPGPNGAV (listed as Oreochromis mossambicus) [SEQ ID NO: 11, synthesized peptide of tilapia skin, Procollagen, type I]
- FBN1 gene expression level, folds of Control group (FBN1 gene): about 5 folds
- LOX gene expression level, folds of Control group (LOX gene): about 3 folds
- TIMP1 gene expression level, folds of Control group (TIMP1 gene): about 5 folds

Substance: MFGKDVW (listed as Oreochromis mossambicus) [SEQ ID NO: 9, synthesized peptide of N-acetylglucosamine-1-phosphotransferase subunits alpha/beta]
- FBN1 gene expression level, folds of Control group (FBN1 gene): about 4 folds
- LOX gene expression level, folds of Control group (LOX gene): about 2.5 folds
- TIMP1 gene expression level, folds of Control group (TIMP1 gene): about 3 folds

Substance: PGPMGPMGINGA (listed as Oreochromis mossambicus) [SEQ ID NO: 4, synthesized peptide of tilapia skin, Collagen, type V]
- FBN1 gene expression level, folds of Control group (FBN1 gene): about 16 folds

Substance: GLPGVQGNI (listed as Oreochromis mossambicus) [SEQ ID NO: 2, synthesized peptide of tilapia skin, Collagen, type IV]
- FBN1 gene expression level, folds of Control group (FBN1 gene): about 6 folds
- LOX gene expression level, folds of Control group (LOX gene): about 5.7 folds
- TIMP1 gene expression level, folds of Control group (TIMP1 gene): about 7.8 folds

Substance: IGIFGQTGPPGE (listed as Oreochromis mossambicus) [SEQ ID NO: 3, synthesized peptide of tilapia skin, Collagen, type IV]
- FBN1 gene expression level, folds of Control group (FBN1 gene): about 3 folds
- MMP2 gene expression inhibition (MMP2 gene): about 60%
- MMP2 gene expression percentage (Control group regarded as 100%) (MMP2 gene): about 40%

Substance: NGLPGSPGLP GRQGE (NGLPGSPGLPGRQGE; listed as Oreochromis mossambicus) [SEQ ID NO: 7, synthesized peptide of tilapia skin, Collagen, type XII]
- FBN1 gene expression level, folds of Control group (FBN1 gene): about 5 folds

Substance: PGQPGLSGVPGADGKPGLPGP (listed as Oreochromis mossambicus) [SEQ ID NO: 8, synthesized peptide of tilapia skin, Collagen, type XVIII]
- FBN1 gene expression level, folds of Control group (FBN1 gene): about 9 folds
- TIMP1 gene expression level, folds of Control group (TIMP1 gene): about 5 folds

Substance: ALVQNREGP (listed as Oreochromis mossambicus) [SEQ ID NO: 6, synthesized peptide of tilapia skin, Collagen, type VII]
- FBN1 gene expression level, folds of Control group (FBN1 gene): about 5 folds
- TIMP1 gene expression level, folds of Control group (TIMP1 gene): about 3 folds
